These compounds were tested against T1, Human Polymorphonuclear Leukocyte Elastase (Homo sapiens, UniProt P08246) (assay: Inhibition of human polymorphonuclear leukocyte elastase via hydrolysis of N-t-Boc-alanyl-alanyl-prolyl-alanine-p-nitroanilide). Conditions: effective dosage for 50% inhibition of the enzyme activity 2 minutes after zero time; crude human PMN extract, Boc-AAPAN substrate, pH 7.5, 410 mμ; read-out: ED50 (the source's name) (converted).
T1 construct: Crude extract of human polymorphonuclear leukocytes (PMN) containing elastase activity; endogenous in cells; host or cells: human polymorphonuclear leukocytes (crude extract)
T1 sequence (P08246 30-247 limits assumed): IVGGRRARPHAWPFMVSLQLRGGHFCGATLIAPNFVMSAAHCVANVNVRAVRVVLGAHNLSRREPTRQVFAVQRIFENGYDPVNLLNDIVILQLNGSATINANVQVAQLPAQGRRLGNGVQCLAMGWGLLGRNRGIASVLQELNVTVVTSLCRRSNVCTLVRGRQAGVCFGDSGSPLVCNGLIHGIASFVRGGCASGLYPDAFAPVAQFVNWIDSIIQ
Format: biochemical
Procedure: Protocol--Enzyme Assays for the Inhibition of Human Polymorphonuclear Leukocyte Elastase Via Hydrolysis of N-t-Boc-alanyl-alanyl-prolylalanine-p-nitroanilide
0.05M TES (N-tris[hydroxymethyl]methyl-2-amino-ethanesulfonic acid) Buffer, pH 7.5.
0.2 mM N-t-Boc-alanyl-alanyl-prolyl-alanine-p-nitroanilide (Boc-AAPAN).
To prepare substrate, the solid (m.w. 550) was first dissolved in 10.0 ml DMSO. Buffer at pH 7.5 was then added to a final volume of 100 ml.
Crude extract of human polymorphonuclear leukocytes (PMN) containing elastase activity.
Inhibitors (cephalosporin sulfone esters) to be tested dissolved in DMSO just before use.
To 1.0 ml of 0.2 mM Boc-AAPAN in a cuvette, 0.01-0.1 ml of DMSO with or without inhibitor was added. After mixing, a measurement was taken at 410 mμ to detect any spontaneous hydrolysis due to presence of test compound. 0.05 Milliliters of PMN extract was then added and the ΔOD /min at 410 mμ was measured and recorded. Beckman model 35 spectrophotometer was used.
Results were reported as ED50, i.e., effective dosage in micrograms per milliliter (μg/ml) for 50% inhibition of the enzyme activity 2 minutes after zero time.
The elastase activity in the crude PMN extract may vary from one preparation to another. A control of each new batch is run, and the volume added in the assay procedure is adjusted according to activity.
`CC(=O)OCC1=C(C(=O)OCc2ccccc2)N2C(=O)[C@H](NC(=O)C(F)(F)F)[C@H]2S(=O)(=O)C1` [NHCOCF3 / CH2 OCOCH3 / OCH2 .phi., Benzyl 3-acetyloxymethyl-7α-trifluoromethylcarbonylamino-8-oxo-5-thia-1-azabicyclo[4.2.0]oct-2-ene-2-carboxylate-5,5-dioxide] showed an IC50 of 0.0816 µM. With `COC(=O)N[C@H]1C(=O)N2C(C(=O)OCc3ccccc3)=C(COC(C)=O)CS(=O)(=O)[C@H]12` [NHCOOCH3 / CH2 OCOCH3 / OCH2 .phi., benzyl 3-acetyloxymethyl-7α-methoxycarbonylamino-8-oxo-5-thia-1-azabicyclo[4.2.0]oct-2-ene-2-carboxylate-5,5-dioxide] the IC50 was 0.663 µM. With `O=C(OCc1ccccc1)C1=C(C(F)(F)F)CS(=O)(=O)[C@@H]2[C@@H](NC(=O)C(F)(F)F)C(=O)N12` (relative stereo) [CF3 CONH / CF3 / OCH2 .phi., Benzyl 3-trifluoromethyl-7α-trifluoromethylcarbonylamino-8-oxo-5-thia-1-azabicyclo[4.2.0]oct-2-ene-2-carboxylate-5,5-dioxide] the IC50 was 0.0617 µM. Compound `CC(C)(C)OC(=O)C1=C(C(F)(F)F)CS(=O)(=O)[C@@H]2[C@@H](NC(=O)C(F)(F)F)C(=O)N12` (relative stereo) [CF3 CONH / CF3 / OtBu, t-Butyl 3-trifluoromethyl-7α-trifluoromethylcarbonylamino-8-oxo-5-thia-1-azabicyclo[4.2.0]oct-2-ene-2-carboxylate-5,5-dioxide] has an IC50 of 1.77 µM.

Reference: patent publication US4547371A, “Substituted cephalosporin sulfones as anti-inflammatory and anti-degenerative agents” (Merck & Co., Inc., priority 1983, dated 1985)
